Earlier results in patent US20080125428A1, “Cancer Treatment Method” (priority 2004, published 2008).

Tested on: tumor cells overexpressing EGFR or erbB2
Settings: Rusnak et al., 2001b, Xia et al., 2002

Q: With `CS(=O)(=O)CCNCc1ccc(-c2ccc3ncnc(Nc4ccc(OCc5cccc(F)c5)c(Cl)c4)c3c2)o1` [GW572016, N-{3-chloro-4-[(3-fluorobenzyl)oxy]phenyl}-6-[5-({[2-(methanesulphonyl)ethyl]amino}methyl)-2-furyl]-4-quinazolinamine] as the compound, how does the “kinase inhibition in human xenograft studies” value read?
A: The value was “dose-dependent kinase inhibition”.

Q: What about the “selectivity for tumor cells overexpressing EGFR or erbB2” value (human xenograft studies) of the same compound?
A: The value was “selectively inhibits tumor cells overexpressing EGFR or erbB2”.
